Experimental data published in patent US8318455B2, “Inducible/regulated gene expression system in E coli” (priority 2007, dated 2012).
Like-named read-outs stand apart in the source and are kept apart here.

Key:
[1] = system: GFP expression in E. coli BL21(DE3)pLysS; assay type: cell-based, Escherichia coli; settings: for GFP yield / course of induced GFP expression (time of maximum): 100 μm inducer; for state of the induced culture (lysis, foaming): fermenter culture, after 8 hours post induction; for specific yield of GFP / total yield of GFP: defined medium A; for course of induced GFP expression (time of maximum): post induction, FIG. 10A
Procedure: Benchtop Fermentations. Batch fermentation experiments were carried out in a 14-I bioreactor (BioFlo 110, New Brunswick Scientific, Edison, N.J. USA) to compare GFP production yield between T7 expression system and cumate system. For the batch culture, pre-cultures were used to inoculate the bioreactor filled with 5 l of medium A (Yoon et al, 2003) and initial O.D. was adjusted to 0.1 for both expression systems. The cultures induced with IPTG for T7 system and cumate for cumate system when O.D. reached at 38 to 42. For cultures carried out in bioreactors, pH and dissolved oxygen were controlled at 7 and 25%, respectively.
(§1) Detection of gene expression. Detection of GFP was carried out by fluorescence microscopy, and quantified by using a SPECTRAFluor Plus (TECAN Austria Gmbh, Grodïg, Austria) under excitation and emission wavelengths of 485 and 508 nm, respectively. Concentration of GFP was calculated based on a linear relationship between concentration and fluorescence units determined using solutions of purified GFP (Qbiogene). The biomass (X) was determined by cell dry weight measurement of the samples (Moisture Analyzer MA 30, Sartorius).
All results obtained were in defined medium A. The value ‘x’ is dry weight in g/L.
All results obtained were in defined medium A.

[2] = system: GFP expression in host cells; assay: Plate assay: GFP expression, T7 system vs cumate system; assay type: cell-based, Escherichia coli; settings: plates with IPTG (1 mM) or cumate (0.12 mM); FIG. 4
Procedure: Host cell transformation and gene expression. pNEW vectors harbouring different genes of interest were transformed into various E. coli cells by chemical or electroporation methods (Sambrook and Russell, 2000). The transformed cells were grown at 37° C. in LB medium, and expression of genes under developed system was induced with 20 μg/ml cumate or as indicated.
as §1
FIG. 4 depicts a comparison between T7 system and cumate system for GFP expression in plates containing IPTG (1 mM) and cumate (0.12 mM) as inducer, respectively.

[3] = 45 minutes post induction, FIG. 9C
[4] = 2 hours post induction, FIG. 9E
[5] = 3 hours post induction, FIG. 9F
[6] = inducer 100 μM, induction time 1 h
[7] = inducer 100 μM, induction time 2 h
[8] = inducer 100 μM, induction time 4 h
[9] = inducer 100 μM, induction time 5 h
[10] = inducer 100 μM, induction time 6 h
[11] = inducer 100 μM, induction time 7 h
[12] = inducer 100 μM, induction time 8 h
[13] = inducer 100 μM, induction time 9 h
[14] = inducer 1000 μM, induction time 1 h
[15] = inducer 1000 μM, induction time 2 h
[16] = inducer 1000 μM, induction time 4 h
[17] = inducer 1000 μM, induction time 5 h
[18] = inducer 1000 μM, induction time 6 h
[19] = inducer 1000 μM, induction time 7 h
[20] = inducer 1000 μM, induction time 8 h
[21] = inducer 1000 μM, induction time 9 h

Compound | GFP yield [1, 3] [mg/g] | GFP yield ([1]; 1 hour post induction, FIG. 9D) [mg/g] | GFP yield [1, 4] [mg/g] | GFP yield [1, 5] [mg/g] | state of the induced culture (lysis, foaming) [1] | specific yield of GFP [1, 6] [mg/g x] | total yield of GFP [1, 6] [mg/L] | specific yield of GFP [1, 7] [mg/g x] | total yield of GFP [1, 7] [mg/L] | specific yield of GFP [1, 8] [mg/g x] | total yield of GFP [1, 8] [mg/L] | specific yield of GFP [1, 9] [mg/g x] | total yield of GFP [1, 9] [mg/L] | specific yield of GFP [1, 10] [mg/g x] | total yield of GFP [1, 10] [mg/L] | specific yield of GFP [1, 11] [mg/g x] | total yield of GFP [1, 11] [mg/L] | specific yield of GFP [1, 12] [mg/g x] | total yield of GFP [1, 12] [mg/L] | specific yield of GFP [1, 13] [mg/g x] | other results
CC(C)c1ccc(C(=O)O)cc1 [Cumate, p-cumate] | 30 | 38 | 84 | 123 | no lysis occurred | 38 | 602 | 84 | 644 | 123 | 3002 | 164 | 4719 | 176 | 5443 | 165 | 6194 | 193 | 6977 | 222 | cumate induced GFP yield relative to IPTG induced culture ([1]; cultures induced with 1000 μM IPTG or cumate): more than double; total yield of GFP [1, 13]: 7838 mg/L; specific yield of GFP [1, 14]: 36 mg/g x; total yield of GFP [1, 14]: 486 mg/L; specific yield of GFP [1, 15]: 71 mg/g x; total yield of GFP [1, 15]: 1459 mg/L; specific yield of GFP [1, 16]: 110 mg/g x; total yield of GFP [1, 16]: 2851 mg/L; specific yield of GFP [1, 17]: 141 mg/g x; total yield of GFP [1, 17]: 4593 mg/L; specific yield of GFP [1, 18]: 149 mg/g x; total yield of GFP [1, 18]: 4885 mg/L; specific yield of GFP [1, 19]: 155 mg/g x; total yield of GFP [1, 19]: 5989 mg/L; specific yield of GFP [1, 20]: 249 mg/g x; total yield of GFP [1, 20]: 9666 mg/L; specific yield of GFP [1, 21]: 289 mg/g x; total yield of GFP [1, 21]: 11150 mg/L; course of induced GFP expression (time of maximum) [1]: > 8 h; GFP expression on plates, comparison of systems [2]: dramatically outperforms the IPTG system
CC(C)S[C@@H]1O[C@H](CO)[C@H](O)[C@H](O)[C@H]1O [IPTG, isopropyl-beta-D-thiogalactopyranoside] | 27 | 37 | 74 | 90 | quickly began to lyse | 37 | 554 | 74 | 1300 | 90 | 1778 | 96 | 2486 | 85 | 2035 | 58 | 1567 | 68 | 1948 | 67 | total yield of GFP [1, 13]: 2090 mg/L; specific yield of GFP [1, 14]: 37 mg/g x; total yield of GFP [1, 14]: 606 mg/L; specific yield of GFP [1, 15]: 60 mg/g x; total yield of GFP [1, 15]: 1191 mg/L; specific yield of GFP [1, 16]: 83 mg/g x; total yield of GFP [1, 16]: 1966 mg/L; specific yield of GFP [1, 17]: 103 mg/g x; total yield of GFP [1, 17]: 2464 mg/L; specific yield of GFP [1, 18]: 118 mg/g x; total yield of GFP [1, 18]: 3340 mg/L; specific yield of GFP [1, 19]: 135 mg/g x; total yield of GFP [1, 19]: 4238 mg/L; specific yield of GFP [1, 20]: 145 mg/g x; total yield of GFP [1, 20]: 4079 mg/L; course of induced GFP expression (time of maximum) [1]: 4 h
